Laboratory results published in patent publication US8349801B2, “Peptide ligands for G-protein coupled receptors” (priority 2006, dated 2013).
Like-named read-outs stand apart in the source and are kept apart here. No end group written: not given here.

Key:
[1] = test system: Zymosan-induced murine dorsal air pouch model; assay type: in vivo, mice; conditions: 4 h; for inhibition of zymosan-induced neutrophil (GR-1+) accumulation: FACS
Method: The anti-inflammatory activity of P58 shorter derivatives was tested in the same model of acute inflammation used in Example 6, the Zymosan-induced murine dorsal air pouch model.
Male out-bred Swiss albino mice were purchased from Harlan, UK (T.O. strain) and maintained on a standard chow pellet diet with tap water ad libitum and a 12:00 h light/dark cycle. All animals were housed for 7 days prior to experimentation to allow body weight to reach ˜25 g on the day of the experiment.
Drugs were stored at −20° C. and defrosted on the day of the experiment. Peptide P58 (SEQ ID NO:1) was provided lyophilized; it was taken back to room temperature and dissolved with sterile PBS before use to make an initial 1 mg/ml solution. Peptide P58-4 (SEQ ID NO:2) was provided lyophilized; it was taken back to room temperature and dissolved with sterile PBS before use to make an initial 327 μg/ml solution. Peptide P58-5 (SEQ ID NO:3) was provided lyophilized; it was taken back to room temperature and dissolved with sterile PBS before use to make an initial 476 μg/ml solution. Vehicle consisted of sterile pyrogen free PBS (Gibco, cat no. 14190-094). Once dissolved, peptides P58 (SEQ ID NO:1), P58-4 (SEQ ID NO:2) and P58-5 (SEQ ID NO:3) gave a clear solution. Drugs or vehicle were administered i.v. at a final volume of 200 μl in the doses described below.
Lavage fluids were kept all the time on ice, then used to determine the number of migrated leukocytes, by taking an aliquot (100 μl) and diluting it 1:10 in Turk's solution (0.01% crystal violet in 3% acetic acid). The samples were then vortexed and 10 μl of the stained cell solution were placed in a Neubauer haematocymometer. Differential cell count was done using a light microscope (Olympus B061). In view of their chromatic characteristics and their nucleus and cytoplasm appearance, polymorphonuclear leukocytes (PMN; >95% neutrophils) could be easily identified.
For FACS analyses, an aliquot of lavage fluid was stained with the PE-conjugated anti-GR-1 monoclonal antibody (1:100 dilution, eBiosciences; Cat 11-5931) to mark polymorphonuclear leukocytes. Staining was performed at 4° C. Flow cytometry was performed using FACScan analyser (Becton Dickinson, Cowley, UK) with air-cooled 100 mW argon laser tuned to 488 nm connected to an Apple Macintosh G3 computer running Cell Quest II software. Forward and sidescatter characteristics were initially used to distinguish between the three distinct cell populations (lymphocytes, monocytes and granulocytes). Cells positive for GR-1 were detected in the FL2 channel (wavelength of 548 nm). Data are expressed as percentage of positive cells (in relation to the specific mAb). Determination of positive and negative populations was performed based on the control staining with irrelevant IgG isotype (rat IgG2b) labelled with PE. Once determined, quadrants were rigorously maintained for all analyses.
Data are shown for single mice, and also shown as mean±S.E. of (n) mice per group. Statistical differences were determined by ANOVA, plus Student Newman Keuls test. A P value<0.05 was taken as significant.

FPRL1 = molecular target: T1, FPRL1 (Homo sapiens, UniProt P25090); experiment: Calcium flux in CHO-K1 cells co-transfected with FPRL1 and Gα16; assay type: cell-based; design: expressed in transfected cells; host or cells: CHO-K1 (ATCC-CCL-61), transient co-transfection; conditions: for calcium flux, P58 and derivatives: dose response
T1 sequence (P25090 1-351): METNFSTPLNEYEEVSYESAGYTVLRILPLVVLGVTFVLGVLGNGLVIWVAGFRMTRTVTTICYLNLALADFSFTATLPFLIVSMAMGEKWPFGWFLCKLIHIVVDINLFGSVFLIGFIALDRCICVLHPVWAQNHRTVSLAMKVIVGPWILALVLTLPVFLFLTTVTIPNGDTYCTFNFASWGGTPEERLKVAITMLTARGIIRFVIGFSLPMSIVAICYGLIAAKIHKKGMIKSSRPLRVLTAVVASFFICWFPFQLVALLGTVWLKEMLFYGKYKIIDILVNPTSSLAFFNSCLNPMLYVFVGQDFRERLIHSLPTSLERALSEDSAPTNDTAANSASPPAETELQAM
Method: (§1) The assay was carried out in CHO cells were transiently transfected with the GPCR of choice, by utilizing the promiscuous Gα16 to divert signaling to the Gq pathway, thus enabling readout of GPCR activation by testing for Calcium flux as described by Liu et al 2003 (Biomol Screen 8, 39-49).
(§2) All the peptides thus obtained were tested for their ability to change calcium flux in CHO—K1 cells (ATCC-CCL-61) transiently co-transfected with an expression vector containing the GPCR of choice and expression vector containing the Gα16 encoding cDNA. Expression constructs containing cDNA clones for MrgX1, MrgX2, Mas or FPRL1 were commercially obtained in one of the following expression vectors: pcDNA3.1, pCMV6, or MO2.
(§3) Transient transfections were performed using CHO—K1 cells as host cells. Cells (12 million) were plated into T75 flasks on the day preceding transfection. Cells were transfected with the appropriate GPCR expression vector and with a vector expressing Gα16 using a lipid-based reagent, MTI, according to the manufacturer's recommendation. Cells were transfected for 5 hours, then re-plated into 96-well dishes (60,000 cells per well) and grown overnight.
(§4) On the day of the experiment, cells were loaded with Fluo4-NW (Invitrogen) according to the manufacturer's recommendation. Plates were loaded into a FlexStation™ (Molecular Devices) plate reader and fluorescence was monitored. Seventeen seconds following initiation of reading, cells were stimulated with the indicated agonist/compound at final concentration of 1 μM. Each 96 well plate contained cells transfected with one GPCR expression vector and each of the examined peptides was tested in triplicate.
(§5) We defined a hit as a peptide which elicited a clear and distinct increase in intracellular calcium that is clearly visible and statistically significant upon examination of the calcium trace for at least two repeats. The criterion for statistical significance was a p-value lower than 0.001 in a t-test comparing the levels of calcium before and after peptide addition.
(§6) Based on dose response experiments, EC50 best fit values were calculated by non-linear regression of sigmoidal dose-response curves, using Prism version 4 (GraphPad Software Inc., San Diego, Calif.). The formulae for the sigmoidal dose-response curves was defined as Y=Bottom+(Top−Bottom)/(1+10^ (LogEC50−X)*HillSlope))
The ability of Peptides to change calcium flux was examined in CHO—K1 cells co-transfected with FPRL1 and Gal 6.

MrgX2 = molecular target: T2, MrgX2 (Homo sapiens, UniProt Q96LB1); experiment: Calcium flux in CHO-K1 cells co-transfected with MrgX2 and Gα16; assay type: cell-based; conditions: for calcium flux relative to the negative control: 1 μM, about 20 to 90 seconds; for eliciting calcium flux compared to cortistatin-14: MrgX2-expressing cells, summary statement
T2 construct: expressed in transfected cells; host or cells: CHO-K1 (ATCC-CCL-61), transient co-transfection
T2 sequence (Q96LB1 1-330): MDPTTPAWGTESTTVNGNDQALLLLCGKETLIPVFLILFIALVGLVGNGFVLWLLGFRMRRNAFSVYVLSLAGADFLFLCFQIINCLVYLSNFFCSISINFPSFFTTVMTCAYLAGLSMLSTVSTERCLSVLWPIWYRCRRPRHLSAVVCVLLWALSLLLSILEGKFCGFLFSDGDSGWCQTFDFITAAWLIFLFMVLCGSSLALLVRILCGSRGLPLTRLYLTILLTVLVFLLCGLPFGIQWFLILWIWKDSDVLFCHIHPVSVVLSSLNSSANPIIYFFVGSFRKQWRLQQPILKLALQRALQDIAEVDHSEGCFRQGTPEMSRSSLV
Method: as §1, §2, §3, §4, §5, §6
The ability of Peptides to change calcium flux was examined in CHO—K1 cells co-transfected with MrgX2 and Gal 6.

[2] = test system: Isoproterenol induced rats; experiment: Cardiac remodeling induced by Isoproterenol; assay type: in vivo, Wistar rats; conditions: isoproterenol 2 mg/kg/day s.c. 7 days; peptides 1 ug/hour/Kg osmotic minipump; Losartan 1 mg/kg once a day by gavage
Method: The effect of the peptides […] (SEQ ID NO:10), […]-dimer ([…]) (SEQ ID […]), P33_V (SEQ ID NO:7), P33-dimer (P33_D) (SEQ ID NO:6) on cardiac remodeling, was tested by determining their effect on heart hypertrophy and fibrosis (deposition of collagen I, III, and fibronectin) induced by Isoproterenol. Losartan (an antagonist of the known angiotensin II receptor, AT1, Kucharewicz et al., 2002; Hypertension, (40): 774-779) was used as positive control. The negative control group was treated with vehicle only. Additional control groups included rats not-treated with isoproterenol which were treated with the peptides, with Losartan or with the vehicle. The analysis included determination of the left ventricle mass and morphometry. In addition, immunofuorescence analysis of fibronectin and collagens I and III deposition was performed by confocal microscopy. Animals Acclimatization: Male Wistar rats Age: 13-14 weeks (250 to 300 g) were maintained in the animal facilities for 7 days before the beginning of the experiment. The animals were exposed to a brightness circle of light-dark cycle of 12 hs (day-06:00 to 18:00; night-18:00 to 06:00), and the room temperature was kept at 23±2° C. Heart failure was induced by daily injections of isoproterenol (2 mg/kg/day, subcutaneously) during 7 days. […] Immunofluorescence-labeling and quantitative confocal microscopy was used to investigate the distribution and quantity of collagen types I, III and fibronectin present in the left ventricles. […] Optimal confocal settings (aperture, gain and laser power) were determined at the beginning of each imaging session and then held constant during the analysis of all the samples. […] For quantitative analysis of collagens I, III, and fibronectin, the ImageTool 2.0 image analysis program was used ([…].edu/[…]) to measure the fluorescence intensity in images randomly selected. […]

| Molecule | inhibition of leukocyte accumulation triggered by zymosan A ([1]; 20 nmole/mouse i.v.) | inhibition of leukocyte accumulation triggered by zymosan A ([1]; 80 nmole/mouse i.v.) | calcium flux, P58 and derivatives (FPRL1) | calcium flux relative to the negative control (MrgX2) | eliciting calcium flux compared to cortistatin-14 (MrgX2) | other results |
| --- | --- | --- | --- | --- | --- | --- |
| LQKFTSWFM-amide (LQKFTSWFM-NH2; listed as Homo sapiens) [P58—5] | did not inhibit leukocyte migration | 29% | elicited calcium flux | – | – | inhibition of zymosan-induced neutrophil (GR-1+) accumulation ([1]; 20 nmole/mouse i.v.): weak effect |
| AAQATGPLQDNELPGLDERPPRAHAQHFHKHQLWPSPFRALKPRP (listed as Homo sapiens) [Peptide P94] | – | – | – | increased calcium flux | superior to cortistatin-14 | calcium flux relative to the negative control (FPRL1; 1 μM, three wells, about 20 to 90 seconds): increased calcium flux |
| FTSWFM-amide (FTSWFM-NH2; listed as Homo sapiens) [P58—4] | 35% | 47% | elicited calcium flux | – | – | inhibition of zymosan-induced neutrophil (GR-1+) accumulation ([1]; 80 nmole/mouse i.v.): 49% |
| AHAQHFHKHQLWPSPFRALKPRP (listed as Homo sapiens) [Peptide 63] | – | – | – | increased calcium flux | superior to cortistatin-14 | – |
| CCCCc1nc(Cl)c(CO)n1Cc1ccc(-c2ccccc2-c2nn[nH]n2)cc1 [Losartan, reference compound] | – | – | – | – | – | effect on Isoproterenol induced raise in the left ventricle to body mass ratio (LV/BW) [2]: did not have an effect |
